Earlier results on one compound are cited in US7780990B2, “Combination therapeutic compositions and method of use” (priority 2005, dated 2010).

For the data set the following is noted: intravenous infusion 30 g over 30 min, patients with type II diabetes.

SMILES strings stand for the structures.

Take `C[N+](C)(C)CC(=O)O` [betaine, glycine betaine]: the blood pressure result was “reduces blood pressure” and the haemodynamic functions entry is reported as “improves haemodynamic functions”.
